Consider three molecules from the NIST ThermoML archive (doi:10.1021/je3003783).

Broadly, the mass density is mass per unit of volume.

The conditions of the data set: 101.33 kPa, Liquid, Vibrating tube method.

Structures are written as SMILES. Numbers after ± are expanded uncertainties.

`CCCCn1cc[n+](C)c1.[Cl-]` [1-butyl-3-methylimidazolium chloride]: the mass density runs as follows: (298.15 K) 1081.59 ± 0.38 kg/m3; (323.15 K) 1067.28 ± 0.37 kg/m3; (348.15 K) 1053.35 ± 0.35 kg/m3; (363.15 K) 1045.06 ± 0.34 kg/m3.

`CCCCCCn1cc[n+](C)c1.[Cl-]` [1-hexyl-3-methylimidazolium chloride]: the mass density by setting is: (298.15 K) 1040.92 ± 0.34 kg/m3; (323.15 K) 1026.73 ± 0.32 kg/m3; (348.15 K) 1012.81 ± 0.31 kg/m3; (363.15 K) 1004.49 ± 0.3 kg/m3.

Regarding `CCCCCCCC[n+]1ccn(C)c1.[Cl-]` [1-methyl-3-octylimidazolium chloride], the mass density is, setting by setting: (298.15 K) 1012.35 ± 0.31 kg/m3; (323.15 K) 998.05 ± 0.3 kg/m3; (348.15 K) 983.99 ± 0.3 kg/m3; (363.15 K) 975.67 ± 0.3 kg/m3.
